In ChEMBL document CHEMBL5214915 (Eur J Med Chem, 2021):
Values after ≈ are worked out from the molar mass of the structure shown.

Legend:
Assay type in all cases: functional
[1] = tested on: Mycobacterium tuberculosis variant bovis; assay: Antibacterial activity against Mycobacterium bovis BCG incubated for 1 week in 7H9/ADC/Tw medium in presence of 0.1 mM chorismate
[2] = tested on: Mycobacterium tuberculosis variant bovis; assay: Antibacterial activity against Mycobacterium bovis BCG incubated for 1 week in 7H9/ADC/Tw medium in presence of 0.1 mM anthranilate
[3] = tested on: Mycobacterium tuberculosis variant bovis; assay: Antibacterial activity against Mycobacterium bovis BCG incubated for 1 week in 7H9/ADC/Tw medium in presence of 0.5 mM chorismate
[4] = tested on: Mycobacterium tuberculosis variant bovis; assay: Antibacterial activity against Mycobacterium bovis BCG incubated for 1 week in 7H9/ADC/Tw medium in presence of 0.1 mM Trp
[5] = tested on: Mycobacterium tuberculosis variant bovis; assay: Antibacterial activity against Mycobacterium bovis BCG incubated for 1 week in 7H9/ADC/Tw medium
[6] = tested on: Mycobacterium tuberculosis variant bovis; assay: Antibacterial activity against Mycobacterium bovis BCG incubated for 1 week in 7H9/ADC/Tw medium in presence of 0.1 mM indole
[7] = Mycobacterium tuberculosis variant bovis, BCG, 168 h, read-out: MIC

Q: For `Nc1cccc(F)c1C(=O)NNc1c(Cl)cc(Cl)cc1Cl`, which MIC [1, 7] is on record?
A: 45.9 µM

Q: What about the MIC [2, 7] of the same compound?
A: > 50 µM

Q: And the MIC [3, 7]?
A: 45.9 µM

Q: What about the MIC [4, 7] of the same compound?
A: > 50 µM

Q: What about the MIC [5, 7] of the same compound?
A: 22.9 µM (≈ 7.98 µg/mL)

Q: What about the MIC [6, 7] of the same compound?
A: > 50 µM

Q: `Nc1cccc(F)c1C(=O)NNc1ccccc1` was tested. Which MIC [1, 7] did it give?
A: 8.15 µM

Q: What about the MIC [2, 7] of the same compound?
A: > 50 µM

Q: And the MIC [3, 7]?
A: 8.15 µM

Q: And the MIC [4, 7]?
A: > 50 µM

Q: And the MIC [5, 7]?
A: 2 µM (≈ 0.491 µg/mL)

Q: And the MIC [6, 7]?
A: > 50 µM

Q: What does the source list for `Nc1cccc(F)c1C(=O)O`?
A: MIC [1, 7]: 6.4 µM; MIC [2, 7]: > 50 µM; MIC [3, 7]: 6.4 µM; MIC [4, 7]: > 50 µM; MIC [5, 7]: 6.4 µM (≈ 0.993 µg/mL); MIC [6, 7]: > 50 µM

Q: For `Cl.Nc1cccc(F)c1C(=O)NNc1ccccc1`, which MIC [1] is on record?
A: 7.1 µM

Q: And the MIC [2]?
A: >50 µM

Q: What about the MIC [3] of the same compound?
A: 14.2 µM

Q: And the MIC [4]?
A: >50 µM

Q: What about the MIC [5] of the same compound?
A: 3.5 µM

Q: What about the MIC [6] of the same compound?
A: >50 µM
